Test results published in ChEMBL document CHEMBL1201862, “PubChem BioAssay data set” (2004).
Active and inactive are the calls of the source.

How the values were obtained:
[1] = molecular target: Photoreceptor-specific nuclear receptor (Homo sapiens, UniProt Q9Y5X4); assay type: functional, cell-based;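 further: CHO-S cells with Gal4-NCOR and VP16-NR2E3 two-hybrid luciferase reporter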
[2] = molecular target: Tyrosine-protein phosphatase non-receptor type 11 (Homo sapiens, UniProt Q06124); test: SHP2 phosphatase inhibition, dose response, selectivity assay for STEP inhibitor project, biochemical (AID 602367); assay type: functional; conditions: read-out: IC50_Mean
[3] = molecular target: Tyrosine-protein phosphatase non-receptor type 5 (Homo sapiens, UniProt P54829); test: STEP phosphatase inhibitors, confirmation, biochemical, fluorescence intensity, uHTS hits (AID 602372); assay type: functional; conditions: read-out: IC50_Mean
Tyrosine-protein phosphatase non-receptor type 5, sequence (P54829 whole entry): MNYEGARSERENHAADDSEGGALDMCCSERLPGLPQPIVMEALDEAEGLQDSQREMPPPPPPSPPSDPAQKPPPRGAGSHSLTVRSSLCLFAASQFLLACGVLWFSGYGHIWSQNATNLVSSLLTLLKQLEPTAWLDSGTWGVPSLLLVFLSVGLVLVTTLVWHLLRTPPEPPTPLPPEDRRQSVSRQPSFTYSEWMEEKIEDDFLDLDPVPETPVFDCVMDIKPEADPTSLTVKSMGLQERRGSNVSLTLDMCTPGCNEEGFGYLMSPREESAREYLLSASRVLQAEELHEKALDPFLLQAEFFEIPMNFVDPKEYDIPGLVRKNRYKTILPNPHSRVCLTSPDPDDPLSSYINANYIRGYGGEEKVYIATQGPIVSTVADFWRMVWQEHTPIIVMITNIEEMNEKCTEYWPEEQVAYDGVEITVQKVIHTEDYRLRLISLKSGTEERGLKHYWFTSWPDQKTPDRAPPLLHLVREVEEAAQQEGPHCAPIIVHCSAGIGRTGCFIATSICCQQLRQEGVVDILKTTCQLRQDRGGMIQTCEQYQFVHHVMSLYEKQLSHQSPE

[4] = molecular target: Dual specificity protein phosphatase 3 (Homo sapiens, UniProt P51452); test: VHR phosphatase inhibition, dose response, selectivity assay for STEP inhibitor project, biochemical (AID 602374); assay type: functional; conditions: read-out: IC50_Mean
[5] = molecular target: T1, RNA-binding protein pos-1 (Caenorhabditis elegans, UniProt G5EF15); test: inhibitors of POS-1/mex-3 RNA binding, dose response, biochemical, fluorescence polarization (AID 1964);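 further: purified POS-1 fused to maltose binding protein made in E. coli; potency of compounds blocking POS-1 binding to fluorescent RNA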
T1 sequence (G5EF15 whole entry): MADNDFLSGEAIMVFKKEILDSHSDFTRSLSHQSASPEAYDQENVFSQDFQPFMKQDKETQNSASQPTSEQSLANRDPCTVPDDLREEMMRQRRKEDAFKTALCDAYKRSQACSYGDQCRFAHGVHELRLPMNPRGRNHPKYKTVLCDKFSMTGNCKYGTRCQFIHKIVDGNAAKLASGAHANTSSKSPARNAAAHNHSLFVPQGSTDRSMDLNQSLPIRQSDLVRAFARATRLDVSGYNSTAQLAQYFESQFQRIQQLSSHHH

[6] = molecular target: T2, Zinc finger protein mex-5 (Caenorhabditis elegans, UniProt Q9XUB2); test: MEX-5/TCR-2 RNA interaction inhibitors, dose response, biochemical, C. elegans, fluorescence polarization (AID 1960)
T2 sequence (Q9XUB2 whole entry): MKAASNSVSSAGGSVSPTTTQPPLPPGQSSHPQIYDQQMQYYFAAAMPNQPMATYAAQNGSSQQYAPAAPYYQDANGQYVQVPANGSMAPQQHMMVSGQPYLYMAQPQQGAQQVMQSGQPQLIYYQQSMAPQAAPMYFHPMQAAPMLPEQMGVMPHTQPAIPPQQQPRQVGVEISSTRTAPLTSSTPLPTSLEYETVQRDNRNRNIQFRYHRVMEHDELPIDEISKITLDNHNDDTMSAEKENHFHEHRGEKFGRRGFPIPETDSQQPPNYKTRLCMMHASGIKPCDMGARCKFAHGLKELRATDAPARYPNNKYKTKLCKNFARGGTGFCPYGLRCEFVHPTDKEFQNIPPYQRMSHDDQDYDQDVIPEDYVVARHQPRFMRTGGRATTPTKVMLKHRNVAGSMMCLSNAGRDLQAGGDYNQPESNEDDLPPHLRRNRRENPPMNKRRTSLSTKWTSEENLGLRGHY

[7] = molecular target: T3, Long-chain-fatty-acid--AMP ligase FadD28 (Mycobacterium tuberculosis, UniProt P9WQ59); test: Fluorescence polarization aasay to screen for inhibitors that compete for the binding of FadD28 to a bisubstrate Measured in Biochemical System Using Plate Reader - 2147-01_Inhibitor_Dose_CherryPick_Activity.; assay type: functional, Mycobacterium tuberculosis H37Rv
T3 sequence (P9WQ59 whole entry): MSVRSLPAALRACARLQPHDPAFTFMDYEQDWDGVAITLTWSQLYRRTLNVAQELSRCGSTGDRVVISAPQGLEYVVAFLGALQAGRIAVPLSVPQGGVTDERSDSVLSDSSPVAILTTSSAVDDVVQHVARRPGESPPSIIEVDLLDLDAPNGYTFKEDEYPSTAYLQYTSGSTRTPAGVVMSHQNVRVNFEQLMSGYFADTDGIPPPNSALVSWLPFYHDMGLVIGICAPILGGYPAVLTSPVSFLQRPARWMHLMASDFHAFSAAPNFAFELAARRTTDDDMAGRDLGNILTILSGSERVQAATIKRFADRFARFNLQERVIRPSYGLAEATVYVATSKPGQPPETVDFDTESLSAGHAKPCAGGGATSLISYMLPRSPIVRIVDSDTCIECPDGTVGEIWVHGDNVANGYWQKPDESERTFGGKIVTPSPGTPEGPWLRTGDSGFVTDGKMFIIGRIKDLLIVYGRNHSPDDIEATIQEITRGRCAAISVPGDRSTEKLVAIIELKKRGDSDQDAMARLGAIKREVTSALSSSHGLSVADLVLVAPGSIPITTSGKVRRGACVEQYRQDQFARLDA

Genome polyprotein = Genome polyprotein (dengue virus type 2, UniProt P29990); test: Dengue-2 NS5 methyltransferase inhibitors, primary screen, biochemical, confirmation dose response (AID 588689); assay type: functional
Insulin-degrading enzyme [8] = molecular target: T4, Insulin-degrading enzyme (Homo sapiens, UniProt P14735); test: activators of recombinant IDE enzyme, dose response, counter-screen for IDE activator project, biochemical, fluorescence polarization (AID 588681)
T4 sequence (P14735 whole entry): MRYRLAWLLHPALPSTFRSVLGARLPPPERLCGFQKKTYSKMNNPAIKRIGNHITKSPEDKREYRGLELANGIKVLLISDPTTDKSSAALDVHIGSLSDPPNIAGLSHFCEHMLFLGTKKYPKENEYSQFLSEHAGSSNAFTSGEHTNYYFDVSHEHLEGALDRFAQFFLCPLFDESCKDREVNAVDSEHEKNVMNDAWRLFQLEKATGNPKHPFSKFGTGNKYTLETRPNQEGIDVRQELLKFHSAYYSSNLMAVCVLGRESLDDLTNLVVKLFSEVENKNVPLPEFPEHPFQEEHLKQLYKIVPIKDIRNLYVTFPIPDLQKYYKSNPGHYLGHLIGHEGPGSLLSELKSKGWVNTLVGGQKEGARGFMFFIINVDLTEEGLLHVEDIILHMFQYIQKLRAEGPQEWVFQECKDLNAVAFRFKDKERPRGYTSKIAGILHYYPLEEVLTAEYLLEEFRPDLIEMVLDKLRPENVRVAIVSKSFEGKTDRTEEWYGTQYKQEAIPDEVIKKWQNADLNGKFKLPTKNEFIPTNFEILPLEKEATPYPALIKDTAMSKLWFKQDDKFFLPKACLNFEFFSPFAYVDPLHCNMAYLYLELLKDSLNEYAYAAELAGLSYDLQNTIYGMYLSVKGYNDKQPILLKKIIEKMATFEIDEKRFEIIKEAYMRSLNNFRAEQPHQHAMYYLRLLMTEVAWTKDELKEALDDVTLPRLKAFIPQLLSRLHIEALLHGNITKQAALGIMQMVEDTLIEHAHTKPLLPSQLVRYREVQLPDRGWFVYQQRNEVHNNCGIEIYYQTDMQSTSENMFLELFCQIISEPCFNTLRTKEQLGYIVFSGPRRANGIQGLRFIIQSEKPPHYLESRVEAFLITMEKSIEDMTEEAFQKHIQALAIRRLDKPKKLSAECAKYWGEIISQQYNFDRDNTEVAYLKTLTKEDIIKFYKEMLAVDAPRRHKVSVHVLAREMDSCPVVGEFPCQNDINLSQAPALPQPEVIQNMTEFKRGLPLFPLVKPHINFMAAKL

HEK293 [9] = test: optical interference in Abeta FP readout, dose response, artefact control for IDE activator project, biochemical, fluorescence polarization (AID 588442); assay type: functional, cell-based; conditions: Homo sapiens
HEK293 [10] = test: HEK cell cytotoxicity by LDH release, dose response, cytotoxicity control for IDE activator project, fluorescence, HEK cells (AID 588440); assay type: functional, cell-based; conditions: Homo sapiens;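 further: cytotoxicity by LDH release measuring loss of membrane integrity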
Insulin-degrading enzyme [11] = molecular target: T4, Insulin-degrading enzyme; test: activators of endogenous IDE in HEK cells, dose response, cell-based, fluorescence polarization (AID 588439); assay type: functional
[12] = molecular target: T5, Corticotropin-releasing factor receptor 2/Corticotropin-releasing factor-binding protein (Homo sapiens, UniProt P24387+Q13324); test: Dose Response confirmation of uHTS hits for small molecule antagonists of the CRF-binding protein and CRF-R2 receptor complex.; assay type: functional; conditions: read-out: IC50_Mean
T5 sequence (Q13324 whole entry): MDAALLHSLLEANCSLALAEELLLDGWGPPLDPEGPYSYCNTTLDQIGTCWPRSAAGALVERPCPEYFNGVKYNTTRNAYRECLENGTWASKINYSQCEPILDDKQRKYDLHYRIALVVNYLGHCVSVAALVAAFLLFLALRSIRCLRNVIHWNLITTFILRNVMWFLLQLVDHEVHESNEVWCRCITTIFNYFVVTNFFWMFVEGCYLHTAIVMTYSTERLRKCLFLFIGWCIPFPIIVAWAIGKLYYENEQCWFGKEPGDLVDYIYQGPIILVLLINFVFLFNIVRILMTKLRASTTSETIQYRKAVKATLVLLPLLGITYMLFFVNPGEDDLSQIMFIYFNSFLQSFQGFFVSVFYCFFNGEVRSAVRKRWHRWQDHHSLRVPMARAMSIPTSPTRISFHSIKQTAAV
T5 sequence (P24387 whole entry): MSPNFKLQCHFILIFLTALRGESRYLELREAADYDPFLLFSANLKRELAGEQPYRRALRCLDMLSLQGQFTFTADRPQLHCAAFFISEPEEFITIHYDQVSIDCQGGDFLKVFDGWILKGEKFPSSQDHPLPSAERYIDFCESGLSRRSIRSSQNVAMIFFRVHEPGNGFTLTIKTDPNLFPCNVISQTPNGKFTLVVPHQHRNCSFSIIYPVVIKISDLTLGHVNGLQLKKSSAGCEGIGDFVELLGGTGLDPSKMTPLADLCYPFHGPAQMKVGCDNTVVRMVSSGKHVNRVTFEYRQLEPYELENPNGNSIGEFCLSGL

[13] = molecular target: T5, Corticotropin-releasing factor receptor 2/Corticotropin-releasing factor-binding protein; test: activators of CRF receptor 2 with binding protein – uHTS hits, confirmation (AID 602473); assay type: functional; conditions: read-out: EC50_Mean
[14] = CRF-BP/CRF-R2 complex antagonists, dose response, cell-based, uHTS hits, 384-well (AID 651639); assay type: functional, Homo sapiens; conditions: read-out: IC50_Mean
[15] = molecular target: Serine/threonine-protein kinase Chk2 (Homo sapiens, UniProt O96017); assay type: functional;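 further: CHEK2 entry within a kinome-wide screening panel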
[16] = molecular target: Protein kinase C zeta type (Homo sapiens, UniProt Q05513); assay type: functional;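 further: measured as one member of a broad kinase profiling panel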
Protein kinase C zeta type, sequence (Q05513 whole entry): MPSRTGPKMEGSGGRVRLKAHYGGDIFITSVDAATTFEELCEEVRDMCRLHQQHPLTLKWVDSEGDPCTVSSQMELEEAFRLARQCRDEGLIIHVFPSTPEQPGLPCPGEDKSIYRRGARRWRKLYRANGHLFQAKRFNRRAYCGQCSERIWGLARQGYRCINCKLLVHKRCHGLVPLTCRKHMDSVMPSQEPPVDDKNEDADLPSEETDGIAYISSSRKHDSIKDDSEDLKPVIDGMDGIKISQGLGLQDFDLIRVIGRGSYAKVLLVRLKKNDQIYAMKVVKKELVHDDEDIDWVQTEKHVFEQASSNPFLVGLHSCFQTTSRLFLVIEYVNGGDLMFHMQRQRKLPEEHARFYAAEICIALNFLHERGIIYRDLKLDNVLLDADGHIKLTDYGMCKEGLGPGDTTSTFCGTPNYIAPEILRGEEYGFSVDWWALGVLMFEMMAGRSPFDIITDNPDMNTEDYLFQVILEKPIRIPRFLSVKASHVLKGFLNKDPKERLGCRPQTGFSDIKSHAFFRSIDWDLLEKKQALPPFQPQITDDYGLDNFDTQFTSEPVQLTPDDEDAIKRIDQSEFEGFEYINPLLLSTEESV

[17] = molecular target: Serine/threonine-protein kinase pim-1 (Homo sapiens, UniProt P11309); assay type: functional
[18] = molecular target: Cyclin-dependent kinase 2 (Homo sapiens, UniProt P24941); assay type: functional;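 further: CDK2 measured as one member of a broad kinome profiling panel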
[19] = molecular target: Protein kinase C delta type (Homo sapiens, UniProt Q05655); assay type: functional
Protein kinase C delta type, sequence (Q05655 whole entry): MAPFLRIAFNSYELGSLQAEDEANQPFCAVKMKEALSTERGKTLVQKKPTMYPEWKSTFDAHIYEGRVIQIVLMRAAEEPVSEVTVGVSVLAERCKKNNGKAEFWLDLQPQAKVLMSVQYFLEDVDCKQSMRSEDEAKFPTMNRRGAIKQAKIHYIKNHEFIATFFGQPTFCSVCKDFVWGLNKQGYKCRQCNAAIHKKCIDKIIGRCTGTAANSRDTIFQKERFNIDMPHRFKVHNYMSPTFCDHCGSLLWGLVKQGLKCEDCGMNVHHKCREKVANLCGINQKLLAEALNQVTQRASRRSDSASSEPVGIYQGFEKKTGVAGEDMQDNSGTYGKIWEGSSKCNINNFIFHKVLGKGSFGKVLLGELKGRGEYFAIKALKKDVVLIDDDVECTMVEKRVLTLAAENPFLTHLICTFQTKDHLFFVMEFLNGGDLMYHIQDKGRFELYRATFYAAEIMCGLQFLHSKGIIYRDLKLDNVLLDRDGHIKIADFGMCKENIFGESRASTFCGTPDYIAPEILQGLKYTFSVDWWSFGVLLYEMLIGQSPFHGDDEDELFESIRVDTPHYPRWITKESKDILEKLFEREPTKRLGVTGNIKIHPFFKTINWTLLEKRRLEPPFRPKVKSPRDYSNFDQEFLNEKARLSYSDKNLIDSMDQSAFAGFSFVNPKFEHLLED

[20] = molecular target: Serine/threonine-protein kinase MRCK alpha (Homo sapiens, UniProt Q5VT25); assay type: functional
[21] = molecular target: Serine/threonine-protein kinase Chk1 (Homo sapiens, UniProt O14757); assay type: functional;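 further: measured as one member of a kinome-wide kinase profiling panel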
[22] = molecular target: RAC-gamma serine/threonine-protein kinase (Homo sapiens, UniProt Q9Y243); assay type: functional
Ephrin type-A receptor 2 = Ephrin type-A receptor 2 (Homo sapiens, UniProt P29317); assay type: functional;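 further: EPHA2 tested as one member of a kinome-wide kinase panel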
[23] = molecular target: Cyclin-dependent kinase 1 (Homo sapiens, UniProt P06493); assay type: functional;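 further: Kinome-wide panel profiling, with the target listed as panel member CDC2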
Cyclin-dependent kinase 1, sequence (P06493 whole entry): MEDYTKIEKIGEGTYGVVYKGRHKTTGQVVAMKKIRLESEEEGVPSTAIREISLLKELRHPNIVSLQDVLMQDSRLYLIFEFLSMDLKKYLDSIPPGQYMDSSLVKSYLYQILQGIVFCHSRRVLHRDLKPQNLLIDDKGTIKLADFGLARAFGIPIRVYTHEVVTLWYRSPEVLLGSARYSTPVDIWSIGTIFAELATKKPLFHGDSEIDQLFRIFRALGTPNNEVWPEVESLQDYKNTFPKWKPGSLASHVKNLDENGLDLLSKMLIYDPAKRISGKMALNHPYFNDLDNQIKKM

[24] = molecular target: Protein kinase C gamma type (Homo sapiens, UniProt P05129); assay type: functional
[25] = molecular target: Casein kinase II subunit alpha (Homo sapiens, UniProt P68400); assay type: functional
[26] = molecular target: Serine/threonine-protein kinase PLK1 (Homo sapiens, UniProt P53350); assay type: functional;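 further: PLK1 measured as one member of a kinome-wide profiling panel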
[27] = molecular target: MAP kinase-activated protein kinase 2 (Homo sapiens, UniProt P49137); assay type: functional;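 further: measured as one member of a kinome-wide kinase panel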
[28] = molecular target: RAC-alpha serine/threonine-protein kinase (Homo sapiens, UniProt P31749); assay type: functional;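 further: AKT1 affinity measured as one member of a kinome-wide kinase profiling panel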
RAC-alpha serine/threonine-protein kinase, sequence (P31749 whole entry): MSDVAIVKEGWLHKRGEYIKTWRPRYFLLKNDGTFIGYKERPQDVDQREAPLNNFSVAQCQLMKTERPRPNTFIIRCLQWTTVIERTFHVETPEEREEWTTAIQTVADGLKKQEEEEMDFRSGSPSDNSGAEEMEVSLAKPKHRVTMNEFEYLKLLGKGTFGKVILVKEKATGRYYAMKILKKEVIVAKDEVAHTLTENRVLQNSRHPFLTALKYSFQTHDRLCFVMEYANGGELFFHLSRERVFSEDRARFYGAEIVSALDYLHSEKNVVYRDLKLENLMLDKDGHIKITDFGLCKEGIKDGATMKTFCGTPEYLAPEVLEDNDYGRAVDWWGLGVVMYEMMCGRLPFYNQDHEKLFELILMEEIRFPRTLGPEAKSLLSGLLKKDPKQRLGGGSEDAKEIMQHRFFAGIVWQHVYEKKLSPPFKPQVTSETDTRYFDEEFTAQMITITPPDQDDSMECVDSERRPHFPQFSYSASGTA

[29] = molecular target: Serine/threonine-protein kinase PLK3 (Homo sapiens, UniProt Q9H4B4); assay type: functional
[30] = molecular target: 5'-AMP-activated protein kinase catalytic subunit alpha-1 (Homo sapiens, UniProt Q13131); assay type: functional
[31] = molecular target: T6, ATP-dependent translocase ABCB1 (Homo sapiens, UniProt P08183); test: ABCG2 efflux pump inhibitor potency, dose response, Ig-MXP3 cells, JC-1, flow cytometry, set 2 (AID 504566); assay type: functional; conditions: read-out: EC50_MICROM_;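 further: flow cytometry median green fluorescence of retained JC-1 dye; potency of efflux pump inhibition measured as rising substrate retention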
T6 sequence (P08183 whole entry): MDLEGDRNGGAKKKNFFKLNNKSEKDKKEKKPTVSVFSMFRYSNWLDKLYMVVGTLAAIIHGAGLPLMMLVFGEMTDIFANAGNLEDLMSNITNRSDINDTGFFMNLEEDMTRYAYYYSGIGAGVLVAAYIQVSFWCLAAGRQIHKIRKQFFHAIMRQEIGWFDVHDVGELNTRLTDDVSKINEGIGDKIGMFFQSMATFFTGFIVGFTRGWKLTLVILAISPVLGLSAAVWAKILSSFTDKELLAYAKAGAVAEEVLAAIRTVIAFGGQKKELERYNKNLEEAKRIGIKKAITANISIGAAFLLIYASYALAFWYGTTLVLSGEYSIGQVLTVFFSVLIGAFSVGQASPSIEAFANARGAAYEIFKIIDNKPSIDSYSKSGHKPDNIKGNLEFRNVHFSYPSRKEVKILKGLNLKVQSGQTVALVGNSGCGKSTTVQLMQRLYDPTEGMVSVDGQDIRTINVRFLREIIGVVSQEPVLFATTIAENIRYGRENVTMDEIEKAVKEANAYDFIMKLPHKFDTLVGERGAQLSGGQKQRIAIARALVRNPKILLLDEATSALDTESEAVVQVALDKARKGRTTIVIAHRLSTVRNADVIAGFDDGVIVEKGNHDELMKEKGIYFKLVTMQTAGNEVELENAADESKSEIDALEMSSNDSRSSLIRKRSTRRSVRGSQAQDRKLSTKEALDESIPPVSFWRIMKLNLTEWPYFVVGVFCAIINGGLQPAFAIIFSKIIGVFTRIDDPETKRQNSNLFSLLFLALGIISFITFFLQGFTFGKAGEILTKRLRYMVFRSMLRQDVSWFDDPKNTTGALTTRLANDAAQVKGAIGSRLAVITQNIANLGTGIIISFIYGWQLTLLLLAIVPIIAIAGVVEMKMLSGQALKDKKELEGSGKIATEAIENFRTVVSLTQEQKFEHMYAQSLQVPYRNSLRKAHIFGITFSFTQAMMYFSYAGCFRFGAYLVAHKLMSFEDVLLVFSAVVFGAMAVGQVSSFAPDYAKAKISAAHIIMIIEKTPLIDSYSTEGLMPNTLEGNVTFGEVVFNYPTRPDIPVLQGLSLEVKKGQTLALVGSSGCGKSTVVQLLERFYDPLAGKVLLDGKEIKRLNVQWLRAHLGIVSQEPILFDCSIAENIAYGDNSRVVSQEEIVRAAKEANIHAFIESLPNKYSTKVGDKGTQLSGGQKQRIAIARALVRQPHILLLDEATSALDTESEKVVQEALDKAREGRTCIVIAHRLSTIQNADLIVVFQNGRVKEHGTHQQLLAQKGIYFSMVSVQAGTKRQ

[32] = molecular target: T6, ATP-dependent translocase ABCB1; test: ABCB1 efflux inhibitor potency, dose response, Jurkat-DNR cells, JC-1, flow cytometry, set 2 (AID 504569); assay type: functional; conditions: read-out: EC50_MICROM_;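 further: potency of pump inhibitors that raise cellular JC-1 green fluorescence up to the nicardipine level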

Photoreceptor-specific nuclear receptor, sequence (Q9Y5X4 whole entry, the tested form may be a part): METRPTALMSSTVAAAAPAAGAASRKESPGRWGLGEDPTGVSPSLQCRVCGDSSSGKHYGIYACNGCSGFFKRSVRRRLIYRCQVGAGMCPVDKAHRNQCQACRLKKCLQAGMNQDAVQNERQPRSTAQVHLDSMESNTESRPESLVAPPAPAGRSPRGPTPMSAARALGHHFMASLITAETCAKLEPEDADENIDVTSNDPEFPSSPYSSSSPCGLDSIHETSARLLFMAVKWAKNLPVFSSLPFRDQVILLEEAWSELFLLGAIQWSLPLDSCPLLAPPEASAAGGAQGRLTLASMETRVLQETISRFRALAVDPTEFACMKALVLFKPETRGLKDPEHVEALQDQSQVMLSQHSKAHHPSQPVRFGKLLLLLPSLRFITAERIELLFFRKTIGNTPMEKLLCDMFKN

Oc1cc(C(F)(F)F)nc(SC/C=C/c2ccccc2)n1
IC50 [1]: 12.7 µM (inactive)

COc1cc(/C=C2/C(=O)NN(c3cccc(C)c3)C2=O)cc([N+](=O)[O-])c1O
IC50 [2]: 5.63 µM (active)
IC50 [3]: 25.5 µM (inactive)
IC50 [4]: 4.11 µM (active)
EC50 [5]: > 300 µM (not active)
EC50 [6]: 89.1 µM (active)
AC50 [7]: 39.2 µM (active)
IC50 (Genome polyprotein): 51.5 µM (active)

c1ccc(C2CC3CC4(CCCC4)N2O3)cc1 (stereo not drawn)
EC50 (Insulin-degrading enzyme [8]): > 54.7 µM (inactive)
EC50 (HEK293 [9]): > 55.9 µM (inactive)
IC50 (HEK293 [10]): > 89.2 µM (inactive)
EC50 (Insulin-degrading enzyme [11]): > 54.7 µM (inactive)

CN(C)CCCN(C(=O)COc1ccc(Cl)cc1)c1nc2ccc(F)cc2s1
EC50 (Insulin-degrading enzyme [8]): > 54.7 µM (inactive)
EC50 (HEK293 [9]): > 55.9 µM (inactive)
IC50 (HEK293 [10]): > 29.7 µM (inactive)
EC50 (Insulin-degrading enzyme [11]): > 54.7 µM (inactive)

N#Cc1c(C(F)(F)F)cc(-c2ccc(Cl)cc2)nc1O
IC50 [12]: 4.16 µM (active)
EC50 [13]: > 53 µM (inactive)
IC50 [14]: > 20 µM (inactive)

Cn1ncc2c1CCCC2=O
Ki [15]: > 25.1 µM (inactive)
Ki [16]: > 20 µM (inactive)
Ki [17]: > 25.1 µM (inactive)
Ki [18]: > 20 µM (inactive)
Ki [19]: > 20 µM (inactive)
Ki [20]: > 25.1 µM (inactive)
Ki [21]: > 20 µM (inactive)
Ki [22]: > 25.1 µM (inactive)
Ki (Ephrin type-A receptor 2): > 20 µM (inactive)
Ki [23]: > 20 µM (inactive)
Ki [24]: > 20 µM (inactive)
Ki [25]: 15.8 µM (active)
Ki [26]: 10 µM (active)
Ki [27]: > 20 µM (inactive)
Ki [28]: > 20 µM (inactive)
Ki [29]: 2 µM (active)
Ki [30]: > 25.1 µM (inactive)

COc1ccc(-c2cc3nc(-c4ccccc4)cc(N4CCN(C(=O)c5ccco5)CC4)n3n2)cc1
EC50 [31]: 1.28 µM (active)
EC50 [32]: 3.35 µM (active)
